Measured values as given in patent publication US20250340561A1, “QUINAZOLINE COMPOUND FOR INDUCING DEGRADATION OF G12D MUTANT KRAS PROTEIN” (Astellas Pharma Inc., priority 2021, published 2025).
Where two headings read alike, the source gives them in different places.

Tests used:
[1] = tested on: phosphorylation of ERK (Thr202/Tyr204); experiment: Test Example 2: ERK phosphorylation inhibition action in AsPC-1, Cell ELISA; format: cell-based, human; conditions: AsPC-1 cells, 0% = 1 μM trametinib
In short: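 AsPC-1 cells (KRAS G12D) treated 24 h with compound (6 points, 10 μM to 3.0 nM final) in RPMI 1640/10% FBS. Fixed with glyoxal; pERK Thr202/Tyr204 detected by In-Cell ELISA with 800 nm fluorescence. IC50 by Sigmoid-Emax regression, with DMSO set to 100% and 1 μM trametinib to 0%.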

[2] = tested on: human G12D mutant KRAS-positive pancreatic cancer line AsPC-1; experiment: Test Example 3: non-anchorage-dependent cell growth inhibition, spheroid 3D cell culture; format: cell-based; conditions: AsPC-1 spheroid 3D culture, 6 days, CellTiter Glo 2.0
In short: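 AsPC-1 cells were grown as spheroids (5×10^2 cells/well, low-adhesion round-bottom plates). Next day they were treated with compound at 6 final concentrations from 10 μM to 3.0 nM for 6 days at 37 °C, and viability was read by CellTiter Glo luminescence. IC50 came from Sigmoid-Emax nonlinear regression, normalized between DMSO-treated and cell-free wells.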

[3] = Homo sapiens, ASPC1, 24 h, read-out: IC50
[4] = Homo sapiens, ASPC1, 144 h, read-out: IC50

| Compound | IC50 ([1]; Homo sapiens, ASPC1, 24 h) [nM] | IC50 ([2]; Homo sapiens, ASPC1, 144 h) [nM] | also measured |
| --- | --- | --- | --- |
| Cc1ncsc1-c1ccc([C@H](CO)NC(=O)[C@@H]2C[C@@H](O)CN2C(=O)[C@H](C(C)C)n2cc(-c3ccc(COc4c(-c5c(C)c(F)cc6[nH]ncc56)c(C5CC5)cc5c(N6C[C@@H]7C[C@H]6CN7)nc(OC[C@H](C)N6CCCC6)nc45)cc3)nn2)cc1 [Example 64] | 80 | 245 | – |
| CO[C@@H](C)COc1nc(N2C[C@@H]3C[C@H]2CN3)c2cc(C3CC3)c(-c3c(C)c(F)cc4[nH]ncc34)c(OCc3ccc(-c4cn([C@H](C(=O)N5C[C@H](O)C[C@H]5C(=O)N[C@@H](CO)c5ccc(-c6scnc6C)cc5)C(C)C)nn4)cc3)c2n1 [Example 48] | 8 | 20 | – |
| Cc1ncsc1-c1ccc([C@H](CN(C)C)NC(=O)[C@@H]2C[C@@H](O)CN2C(=O)[C@H](C(C)C)n2cc(-c3ccc(COc4c(-c5c(C)c(F)cc6[nH]ncc56)c(C5CC5)cc5c(N6C[C@@H]7C[C@H]6CN7)nc(OC6CCOCC6)nc45)cc3)nn2)cc1 [Example 19] | – | – | IC50 [1, 3]: 51 nM; IC50 [2, 4]: 138 nM |
| Cc1ncsc1-c1ccc([C@H](CO)NC(=O)[C@@H]2C[C@@H](O)CN2C(=O)[C@H](C(C)C)n2cc(-c3ccc(COc4c(-c5c(C)c(F)cc6[nH]ncc56)c(C5CC5)cc5c(N6C[C@@H]7C[C@H]6CN7)nc(OC6CCN(C7COC7)CC6)nc45)cc3)nn2)cc1 [Example 24] | 25 | 55 | – |
| Cc1ncsc1-c1ccc([C@H](CO)NC(=O)[C@@H]2C[C@@H](O)CN2C(=O)[C@H](C(C)C)n2cc(-c3ccc(COc4c(-c5c(C)c(F)cc6[nH]ncc56)c(C5CC5)cc5c(N6C[C@@H]7C[C@H]6CN7)nc(O[C@@H]6CCOC6)nc45)cc3)nn2)cc1 [Example 28] | 12 | 37 | – |
| CCc1ccncc1Oc1nc(N2C[C@@H]3C[C@H]2CN3)c2cc(C3CC3)c(-c3c(C)c(F)cc4[nH]ncc34)c(OCc3ccc(-c4cn([C@H](C(=O)N5C[C@H](O)C[C@H]5C(=O)N[C@@H](CO)c5ccc(-c6scnc6C)cc5)C(C)C)nn4)cc3)c2n1 [Example 25] | 15 | 66 | – |
| Cc1c(F)cc2[nH]ncc2c1-c1c(C2CC2)cc2c(N3C[C@@H]4C[C@H]3CN4)nc(OC3CCOCC3)nc2c1OCc1ccc(-c2cn([C@H](C(=O)N3C[C@H](O)C[C@H]3C(=O)N[C@@H](CO)c3ccccc3F)C(C)C)nn2)cc1 [Example 30] | 185 | 323 | – |
| Cc1ncsc1-c1ccc([C@H](CO)NC(=O)[C@@H]2C[C@@H](O)CN2C(=O)[C@H](C(C)C)n2cc(-c3ccc(COc4c(-c5c(C)c(F)cc6[nH]ncc56)c(C5CC5)cc5c(N6C[C@@H]7C[C@H]6CN7)nc(OC[C@H]6CCOC6)nc45)cc3)nn2)cc1 [Example 52] | – | – | IC50 ([1]; 24 hours): 11 nM; IC50 [2]: 31 nM |
| CO[C@@H](C)COc1nc(N2C[C@@H]3C[C@H]2CN3)c2cc(C3CC3)c(-c3c(C)c(F)cc4[nH]ncc34)c(OCc3ccc(-c4cn([C@H](C(=O)N5C[C@H](O)C[C@H]5C(=O)N[C@@H](CO)c5ccc(N6CCOC6=O)cc5)C(C)C)nn4)cc3)c2n1 [Example 59] | 26 | 70 | – |
| Cc1ncsc1-c1ccc([C@H](CO)NC(=O)[C@@H]2C[C@@H](O)CN2C(=O)[C@H](C(C)C)n2cc(-c3ccc(COc4c(-c5c(C)c(F)cc6[nH]ncc56)c(C5CC5)cc5c(N6C[C@@H]7C[C@H]6CN7)nc(OC6CCOCC6)nc45)cc3)nn2)nc1 [Example 35] | 55 | 43 | – |
| COC[C@H](CN1CCOCC1)Oc1nc(N2C[C@@H]3C[C@H]2CN3)c2cc(C3CC3)c(-c3c(C)c(F)cc4[nH]ncc34)c(OCc3ccc(-c4cn([C@H](C(=O)N5C[C@H](O)C[C@H]5C(=O)N[C@@H](CO)c5ccc(-c6scnc6C)cc5)C(C)C)nn4)cc3)c2n1 [Example 55] | – | – | IC50 [1, 3]: 38 nM; IC50 [2, 4]: 76 nM |
| Cc1ncoc1-c1ccc([C@H](CO)NC(=O)[C@@H]2C[C@@H](O)CN2C(=O)[C@H](C(C)C)n2cc(-c3ccc(COc4c(-c5c(C)c(F)cc6[nH]ncc56)c(C5CC5)cc5c(N6C[C@@H]7C[C@H]6CN7)nc(OC6CCOCC6)nc45)cc3)nn2)cc1 [Example 38] | 28 | 27 | – |
| Cc1ncsc1-c1ccc([C@H](CO)NC(=O)[C@@H]2C[C@@H](O)CN2C(=O)[C@H](C(C)C)N2Cc3cc(COc4c(-c5c(C)c(F)cc6[nH]ncc56)c(C5CC5)cc5c(N6C[C@@H]7C[C@H]6CN7)nc(OC6CCOCC6)nc45)ccc3C2=O)cc1 [Example 4] | 522 | 670 | – |
| Cc1c(F)cc2[nH]ncc2c1-c1c(C2CC2)cc2c(N3C[C@@H]4C[C@H]3CN4)nc(OC3CCOCC3)nc2c1OCc1ccc(-c2cn([C@H](C(=O)N3C[C@H](O)C[C@H]3C(=O)N[C@@H](CO)c3ccc(N4CCOC4=O)cc3)C(C)C)nn2)cc1 [Example 20, (4R)-1-[(2S)-2-(4-{4-[({6-cyclopropyl-4-[(1S,4S)-2,5-diazabicyclo[2.2.1]heptan-2-yl]-7-(6-fluoro-5-methyl-1H-indazol-4-yl)-2-[(oxan-4-yl)oxy]quinazolin-8-yl}oxy)methyl]phenyl}-1H-1,2,3-triazol-1-yl)-3-methylbutanoyl]-4-hydroxy-N-{(1R)-2-hydroxy-1-[4-(2-oxo-1,3-oxazolidin-3-yl)phenyl]ethyl}-L-prolinamide] | – | – | IC50 [1, 3]: 36 nM; IC50 [2, 4]: 79 nM |
| Cc1ncsc1-c1ccc([C@H](CO)NC(=O)[C@@H]2C[C@@H](O)CN2C(=O)[C@H](C(C)C)n2cc(-c3ccc(COc4c(-c5c(C)c(F)cc6[nH]ncc56)c(C5CC5)cc5c(N6C[C@@H]7C[C@H]6CN7)nc(OC[C@H](C)N6CCOCC6)nc45)cc3)nn2)cc1 [Example 65] | 11 | 45 | – |
| CO[C@@H](C)COc1nc(N2C[C@@H]3C[C@H]2CN3)c2cc(C3CC3)c(-c3c(C)c(F)cc4[nH]ncc34)c(OCc3ccc(-c4cn([C@H](C(=O)N5C[C@H](O)C[C@H]5C(=O)N[C@@H](CO)c5ccc(F)cc5)C(C)C)nn4)cc3)c2n1 [Example 58] | 25 | 80 | – |
| Cc1c(F)cc2[nH]ncc2c1-c1c(C2CC2)cc2c(N3C[C@@H]4C[C@H]3CN4)nc(OC3CCOCC3)nc2c1OCc1ccc(-c2cn([C@H](C(=O)N3C[C@H](O)C[C@H]3C(=O)N[C@@H](CO)c3ccc(-n4ccnc4C)cc3)C(C)C)nn2)cc1 [Example 69] | – | – | IC50 [1, 3]: 17 nM; IC50 [2, 4]: 64 nM |
| Cc1ncsc1-c1ccc([C@H](CO)NC(=O)[C@@H]2C[C@@H](O)CN2C(=O)[C@H](C(C)C)n2cc(-c3ccc(COc4c(-c5cc(O)cc(F)c5C)c(C5CC5)cc5c(N6C[C@@H]7C[C@H]6CN7)nc(OC6CCOCC6)nc45)cc3)nn2)cc1 [Example 15] | 22 | 64 | – |
| Cc1ncsc1-c1ccc([C@H](CO)NC(=O)[C@@H]2C[C@@H](O)CN2C(=O)[C@H](C(C)C)n2cc(-c3ccc(COc4c(-c5c(C)c(F)cc6[nH]ncc56)c(C5CC5)cc5c(N6C[C@@H]7C[C@H]6CN7)nc(OC[C@@H]6CCOC6)nc45)cc3)nn2)cc1 [Example 53] | – | – | IC50 ([1]; 24 hours): 10 nM; IC50 [2]: 23 nM |
| Cc1c(F)cc2[nH]ncc2c1-c1c(C2CC2)cc2c(N3C[C@@H]4C[C@H]3CN4)nc(OC3CCOCC3)nc2c1OCc1ccc(-c2cn([C@H](C(=O)N3C[C@H](O)C[C@H]3C(=O)N[C@@H](CO)c3ccc(-c4ccnn4C)cc3)C(C)C)nn2)cc1 [Example 23] | – | – | IC50 ([1]; 24 hours): 10 nM; IC50 [2]: 21 nM |
| CC[C@@H](C)Oc1nc(N2C[C@@H]3C[C@H]2CN3)c2cc(C3CC3)c(-c3c(C)c(F)cc4[nH]ncc34)c(OCc3ccc(-c4cn([C@H](C(=O)N5C[C@H](O)C[C@H]5C(=O)N[C@@H](CO)c5ccc(-c6scnc6C)cc5)C(C)C)nn4)cc3)c2n1 [Example 43] | 11 | 16 | – |
| Cc1ncsc1-c1ccc([C@H](CO)NC(=O)[C@@H]2C[C@@H](O)CN2C(=O)[C@H](C(C)C)n2cc(-c3ccc(COc4c(-c5c(C)c(F)cc6[nH]ncc56)c(C5CC5)cc5c(N6C[C@@H]7C[C@H]6CN7)nc(OCC67CCCN6CCC7)nc45)cc3)nn2)cc1 [Example 44] | 95 | 266 | – |
| Cc1ncsc1-c1ccc([C@H](CO)NC(=O)[C@@H]2C[C@@H](O)CN2C(=O)[C@H](C(C)C)n2cc(-c3ccc(COc4c(-c5c(C)c(F)cc6[nH]ncc56)c(C5CC5)cc5c(N6C[C@@H]7C[C@H]6CN7)nc(OC6COC6)nc45)cc3)nn2)cc1 [Example 27] | 27 | 103 | – |
| Cc1ncsc1-c1ccc([C@H](CO)NC(=O)[C@@H]2C[C@@H](O)CN2C(=O)[C@H](C(C)C)n2cc(-c3ccc(COc4c(-c5c(C)c(F)cc6[nH]ncc56)c(C5CC5)cc5c(N6C[C@@H]7C[C@H]6CN7)nc(O[C@H]6CCOC6)nc45)cc3)nn2)cc1 [Example 29] | 15 | 42 | – |
| Cc1ncsc1-c1ccc(CNC(=O)[C@@H]2C[C@@H](O)CN2C(=O)[C@H](C(C)C)n2cc(-c3ccc(COc4c(-c5c(C)c(F)cc6[nH]ncc56)c(C5CC5)cc5c(N6C[C@@H]7C[C@H]6CN7)nc(OC6CCOCC6)nc45)cc3)nn2)cc1 [Example 10] | 26 | 114 | – |
| COC[C@@H](C)Oc1nc(N2C[C@@H]3C[C@H]2CN3)c2cc(C3CC3)c(-c3c(C)c(F)cc4[nH]ncc34)c(OCc3ccc(-c4cn([C@H](C(=O)N5C[C@H](O)C[C@H]5C(=O)N[C@@H](CO)c5ccc(-c6scnc6C)cc5)C(C)C)nn4)cc3)c2n1 [Example 40] | 7 | 20 | – |
